Assay results reported in PMC3966265, “Phosphorylation of Arabidopsis transketolase at Ser^428 provides a potential paradigm for the metabolic control of chloroplast carbon metabolism” (Biochemical Journal, 2014).

What was measured:
Type in all cases: biochemical
cpCKII = target: T1, cpCKII (Arabidopsis thaliana, UniProt O64816); assay: […] phosphorylation of recombinant AtTKL1, SDS/PAGE autoradiogram; conditions: labelled compound; 10 mM MgCl2; pH 7.6; 22 °C; with calcium or EGTA
T1 construct: gene CKA4; mature form lacking N-terminal 85 residues; N-terminal GST fusion (pGEX4-T1) kept; E. coli
T1 sequence (O64816 86-432): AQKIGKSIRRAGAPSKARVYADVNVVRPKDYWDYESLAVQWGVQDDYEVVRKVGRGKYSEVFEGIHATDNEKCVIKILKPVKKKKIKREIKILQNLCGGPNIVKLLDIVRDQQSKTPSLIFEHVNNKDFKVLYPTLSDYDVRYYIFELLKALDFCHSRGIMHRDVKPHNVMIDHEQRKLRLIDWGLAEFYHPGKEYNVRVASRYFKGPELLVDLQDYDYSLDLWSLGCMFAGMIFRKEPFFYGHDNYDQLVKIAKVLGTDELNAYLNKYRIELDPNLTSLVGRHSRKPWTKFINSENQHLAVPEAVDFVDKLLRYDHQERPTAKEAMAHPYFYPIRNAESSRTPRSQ

AtTKL1 [1] = target: T2, AtTKL1 (Arabidopsis thaliana, UniProt Q8RWV0, S428D); assay: coupled NAD reduction assay with E. coli E4PDH, A340; conditions: phosphomimetic mutant; 2 mM G3P; 0.1 mM TPP; 15 mM MgCl2; 5 mM CaCl2; pH 7.2 and 8.0; 30 °C
T2 construct: gene TKL-1; mature form lacking N-terminal 67 residues (chloroplast-targeting peptide); N-terminal intein tag cleaved; E. coli ER2566; 73 kDa; homodimer
T2 sequence (Q8RWV0 68-741 S428D): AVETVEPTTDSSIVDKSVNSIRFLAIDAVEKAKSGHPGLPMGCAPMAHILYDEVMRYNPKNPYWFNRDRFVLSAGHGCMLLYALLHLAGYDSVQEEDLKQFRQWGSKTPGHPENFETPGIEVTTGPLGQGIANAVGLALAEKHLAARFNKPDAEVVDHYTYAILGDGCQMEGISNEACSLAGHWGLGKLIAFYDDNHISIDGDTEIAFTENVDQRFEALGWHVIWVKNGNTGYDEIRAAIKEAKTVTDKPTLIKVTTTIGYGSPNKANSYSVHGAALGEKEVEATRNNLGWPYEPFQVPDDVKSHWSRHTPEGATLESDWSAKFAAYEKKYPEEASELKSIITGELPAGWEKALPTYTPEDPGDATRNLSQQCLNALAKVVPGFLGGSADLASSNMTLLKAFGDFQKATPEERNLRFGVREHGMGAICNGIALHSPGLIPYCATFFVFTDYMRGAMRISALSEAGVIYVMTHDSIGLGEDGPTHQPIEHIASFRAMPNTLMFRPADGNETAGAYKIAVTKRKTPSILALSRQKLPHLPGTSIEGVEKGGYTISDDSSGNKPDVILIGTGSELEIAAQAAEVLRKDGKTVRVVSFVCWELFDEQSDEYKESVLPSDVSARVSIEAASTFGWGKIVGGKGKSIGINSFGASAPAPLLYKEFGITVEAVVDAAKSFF

AtTKL1 [2] = target: T3, AtTKL1 (Arabidopsis thaliana, UniProt Q8RWV0); assay: as above; conditions: 2 mM G3P; 0.1 mM TPP; 15 mM MgCl2; 5 mM CaCl2; pH 7.2 and 8.0; 30 °C
T3 construct: gene TKL-1; mature form lacking N-terminal 67 residues (chloroplast-targeting peptide); N-terminal intein tag cleaved; E. coli ER2566; 73 kDa; homodimer
T3 sequence (Q8RWV0 68-741): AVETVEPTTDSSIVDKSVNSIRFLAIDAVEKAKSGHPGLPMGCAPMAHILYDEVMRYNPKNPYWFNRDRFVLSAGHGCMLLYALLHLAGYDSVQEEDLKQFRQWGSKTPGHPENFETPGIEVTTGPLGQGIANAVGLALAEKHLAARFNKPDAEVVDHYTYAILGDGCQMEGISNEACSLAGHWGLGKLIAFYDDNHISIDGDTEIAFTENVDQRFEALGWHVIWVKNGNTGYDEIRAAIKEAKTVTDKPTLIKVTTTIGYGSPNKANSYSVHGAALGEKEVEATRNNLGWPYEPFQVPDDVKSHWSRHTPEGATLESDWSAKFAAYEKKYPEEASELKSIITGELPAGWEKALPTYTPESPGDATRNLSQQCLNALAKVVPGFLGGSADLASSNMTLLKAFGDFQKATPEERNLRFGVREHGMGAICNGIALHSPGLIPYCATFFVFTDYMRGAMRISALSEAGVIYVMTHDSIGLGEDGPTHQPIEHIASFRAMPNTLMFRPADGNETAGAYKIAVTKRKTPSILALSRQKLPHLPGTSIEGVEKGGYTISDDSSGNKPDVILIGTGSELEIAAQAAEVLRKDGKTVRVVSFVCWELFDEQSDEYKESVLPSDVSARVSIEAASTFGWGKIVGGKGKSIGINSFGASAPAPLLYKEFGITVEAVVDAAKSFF

| SMILES | 32P phosphorylation of recombinant AtTKL1, SDS/PAGE autoradiogram (cpCKII) | KmF6P (AtTKL1 [1]) | KmF6P (AtTKL1 [2]) |
| --- | --- | --- | --- |
| Nc1ncnc2c1ncn2[C@@H]1O[C@H](COP(=O)(O)OP(=O)(O)OP(=O)(O)O)[C@@H](O)[C@H]1O [ATP] | cpCKII was able to phosphorylate recombinant AtTKL1 (Figure 2F, arrowheads) | – | – |
| O=P(O)(O)OC[C@H]1OC(O)(CO)[C@@H](O)[C@@H]1O (stereo partly shown) [F6P] | – | higher KmF6P and VmaxF6P values compared with the phosphomimetic mutant | the wild-type enzyme had higher KmF6P and VmaxF6P values |
| Nc1nc2c(ncn2[C@@H]2O[C@H](COP(=O)(O)OP(=O)(O)OP(=O)(O)O)[C@@H](O)[C@H]2O)c(=O)[nH]1 [GTP] | recombinant cpCKII was able to utilize GTP | – | – |
